Laboratory results from US10787450B2 (BRISTOL-MYERS SQUIBB COMPANY, priority 2016, dated 2020).

biological target: ROCK2 (Homo sapiens (Human), UniProt O75116); experiment: ROCK2 kinase inhibition assay (FITC peptide substrate, LABCHIP 3000 Reader); format: biochemical; conditions: 5 μM ATP, 1.5 μM peptide substrate
In short: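 IC50 derived by curve fitting of dose-response inhibition, read as separation of phosphorylated from unphosphorylated FITC peptide (1.5 μM) after EDTA stop. Buffer: HEPES pH 7.5, MgCl2, Brij-35, DTT; ATP 5 μM; final DMSO <2%; reaction initiated by Rho kinase addition.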

Chain of ROCK2 (O75116 whole entry, species assumed): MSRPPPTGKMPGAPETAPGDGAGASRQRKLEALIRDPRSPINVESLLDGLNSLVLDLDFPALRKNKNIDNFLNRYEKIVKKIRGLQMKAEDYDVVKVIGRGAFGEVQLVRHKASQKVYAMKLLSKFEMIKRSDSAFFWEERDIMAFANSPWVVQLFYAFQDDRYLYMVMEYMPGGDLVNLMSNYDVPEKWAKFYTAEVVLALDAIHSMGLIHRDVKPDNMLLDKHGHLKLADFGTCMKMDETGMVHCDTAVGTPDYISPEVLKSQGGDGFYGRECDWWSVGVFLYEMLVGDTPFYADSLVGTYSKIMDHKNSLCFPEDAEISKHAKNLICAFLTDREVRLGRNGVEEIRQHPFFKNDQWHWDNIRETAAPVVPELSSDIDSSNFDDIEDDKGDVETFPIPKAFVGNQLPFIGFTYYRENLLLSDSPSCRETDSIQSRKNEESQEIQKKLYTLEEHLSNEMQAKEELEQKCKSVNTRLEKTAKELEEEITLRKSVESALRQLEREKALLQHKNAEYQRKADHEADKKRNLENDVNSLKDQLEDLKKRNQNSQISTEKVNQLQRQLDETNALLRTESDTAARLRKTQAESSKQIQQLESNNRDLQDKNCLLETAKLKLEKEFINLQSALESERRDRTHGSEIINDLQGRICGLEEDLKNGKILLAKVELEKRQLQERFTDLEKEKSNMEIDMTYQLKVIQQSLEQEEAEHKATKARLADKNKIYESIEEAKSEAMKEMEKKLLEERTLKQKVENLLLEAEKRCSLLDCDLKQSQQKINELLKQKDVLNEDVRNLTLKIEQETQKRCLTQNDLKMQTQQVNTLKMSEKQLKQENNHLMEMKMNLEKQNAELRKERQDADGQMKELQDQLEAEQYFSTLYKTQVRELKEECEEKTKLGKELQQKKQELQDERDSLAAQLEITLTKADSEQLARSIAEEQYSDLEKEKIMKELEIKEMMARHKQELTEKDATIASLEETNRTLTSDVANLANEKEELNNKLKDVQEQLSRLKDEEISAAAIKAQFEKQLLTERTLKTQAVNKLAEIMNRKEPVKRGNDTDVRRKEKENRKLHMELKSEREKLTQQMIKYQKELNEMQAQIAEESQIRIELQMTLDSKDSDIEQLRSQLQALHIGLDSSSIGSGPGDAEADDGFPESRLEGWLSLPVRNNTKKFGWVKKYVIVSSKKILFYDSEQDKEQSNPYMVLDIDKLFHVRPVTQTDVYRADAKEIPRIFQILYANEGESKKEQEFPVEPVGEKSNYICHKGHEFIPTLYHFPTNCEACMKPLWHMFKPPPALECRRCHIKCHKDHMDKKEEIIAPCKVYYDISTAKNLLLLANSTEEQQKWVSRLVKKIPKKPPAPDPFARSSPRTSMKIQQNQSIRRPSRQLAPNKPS

Question: With CCc1nc(N2CC3(CCN(CCC(F)(F)F)CC3)N(Cc3cccc(OC)c3)C2=O)ccc1-c1cn[nH]c1 [Example 127, 3-(6-ethyl-5-(1H-pyrazol-4-yl)pyridin-2-yl)-1-(3-methoxybenzyl)-8-(3,3,3-trifluoropropyl)-1,3,8-triazaspiro[4.5]decan-2-one] as the compound, how does the IC50 read?
Answer: 3 to 30 nM

Question: How did the IC50 turn out when CCc1nc(N2CC3(CCN(CCC(F)(F)F)CC3)N(Cc3cc(F)cc(OC)c3)C2=O)ccc1-c1cn[nH]c1 [Example 128, 3-(6-ethyl-5-(1H-pyrazol-4-yl)pyridin-2-yl)-1-(3-fluoro-5-methoxybenzyl)-8-(3,3,3-tnfluoropropyl)-1,3,8-triazaspiro[4.5]decan-2-one] was run?
Answer: 3 to 30 nM

Question: For CCc1nc(N2CC3(CCN(CC(F)F)CC3)N(Cc3cc(F)cc(OC)c3)C2=O)ccc1-c1cn[nH]c1 [Example 129, 8-(2,2-difluoroethyl)-3-(6-ethyl-5-(1H-pyrazol-4-yl)pyridin-2-yl)-1-(3-fluoro-5-methoxybenzyl)-1,3,8-triazaspiro[4.5]decan-2-one], which IC50 is on record?
Answer: 3 to 30 nM

Question: How did the IC50 turn out when CCc1nc(N2CC3(CCN(CC(F)F)CC3)N(Cc3cccc(F)c3C)C2=O)ccc1-c1cn[nH]c1 [Example 130, 8-(2,2-difluoroethyl)-3-(6-ethyl-5-(1H-pyrazol-4-yl)pyridin-2-yl)-1-(3-fluoro-2-methylbenzyl)-1,3,8-triazaspiro[4.5]decan-2-one] was run?
Answer: 3 to 30 nM

Question: For Cc1c(F)cccc1CN1C(=O)N(c2ccc(-c3cn[nH]c3)cc2)CC12CCN(CC(F)F)CC2 [Example 131, 3-(4-(1H-pyrazol-4-yl)phenyl)-8-(2,2-difluoroethyl)-1-(3-fluoro-2-methylbenzyl)-1,3,8-triazaspiro[4.5]decan-2-one], which IC50 is on record?
Answer: < 3 nM

Question: Which IC50 does the source give for COc1cc(F)cc(CN2C(=O)N(c3ccc(-c4cn[nH]c4)cc3)CC23CCN(CC(F)F)CC3)c1 [Example 132, 3-(4-(1H-pyrazol-4-yl)phenyl)-8-(2,2-difluoroethyl)-1-(3-fluoro-5-methoxybenzyl)-1,3,8-triazaspiro[4.5]decan-2-one] here?
Answer: < 3 nM

Question: For COc1cccc(CN2C(=O)N(c3ccc(-c4cn[nH]c4)cn3)CC23CCN(CCC(F)(F)F)CC3)c1 [Example 133, 3-(5-(1H-pyrazol-4-yl)pyridin-2-yl)-1-(3-methoxybenzyl)-8-(3,3,3-trifluoropropyl)-1,3,8-triazaspiro[4.5]decan-2-one], which IC50 is on record?
Answer: 3 to 30 nM

Question: Which IC50 does the source give for COc1cccc(CN2C(=O)N(c3ncc(-c4cn[nH]c4)c(OC)n3)CC23CCN(CCC(F)(F)F)CC3)c1 [Example 134, 3-(4-methoxy-5-(1H-pyrazol-4-yl)pyrimidin-2-yl)-1-(3-methoxybenzyl)-8-(3,3,3-trifluoropropyl)-1,3,8-triazaspiro[4.5]decan-2-one] here?
Answer: 30 to 250 nM

Question: How did the IC50 turn out when COc1cccc(CN2C(=O)N(c3ccc(-c4cn[nH]c4)c(OC)n3)CC23CCN(CC(F)F)CC3)c1 [Example 135, 8-(2,2-difluoroethyl)-3-(6-methoxy-5-(1H-pyrazol-4-yl)pyridin-2-yl)-1-(3-methoxybenzyl)-1,3,8-triazaspiro[4.5]decan-2-one] was run?
Answer: < 3 nM

Question: With COc1cccc(CN2C(=O)N(c3ccc(-c4cn[nH]c4)c(OC)n3)CC23CCN(CCC(F)(F)F)CC3)c1 [Example 136, 3-(6-methoxy-5-(1H-pyrazol-4-yl)pyridin-2-yl)-1-(3-methoxybenzyl)-8-(3,3,3-trifluoropropyl)-1,3,8-triazaspiro[4.5]decan-2-one] as the compound, how does the IC50 read?
Answer: < 3 nM

Question: With COc1nc(N2CC3(CCN(CC(F)F)CC3)N(Cc3cccc(F)c3C)C2=O)ccc1-c1cn[nH]c1 [Example 137] as the compound, how does the IC50 read?
Answer: < 3 nM

Question: Which IC50 does the source give for COc1cccc(CN2C(=O)N(c3ccc(-c4cn[nH]c4)cc3)CC23CCN(CC(C)(C)O)CC3)c1 [Example 138, 3-(4-(1H-pyrazol-4-yl)phenyl)-8-(2-hydroxy-2-methylpropyl)-1-(3-methoxybenzyl)-1,3,8-triazaspiro[4.5]decan-2-one] here?
Answer: < 3 nM

Question: COc1cccc(CN2C(=O)N(c3ccc(-c4cn[nH]c4)cc3)CC23CCN(CCO)CC3)c1 [Example 141, 3-(4-(1H-pyrazol-4-yl)phenyl)-8-(2-hydroxyethyl)-1-(3-methoxybenzyl)-1,3,8-triazaspiro[4.5]decan-2-one] was tested. Which IC50 did it give?
Answer: < 3 nM

Question: With COCCN1CCC2(CC1)CN(c1ccc(-c3cn[nH]c3)cc1)C(=O)N2Cc1cccc(OC)c1 [Example 142, 3-(4-(1H-pyrazol-4-yl)phenyl)-1-(3-methoxybenzyl)-8-(2-methoxyethyl)-1,3,8-triazaspiro[4.5]decan-2-one] as the compound, how does the IC50 read?
Answer: 3 to 30 nM

Question: For Cc1c(F)cccc1CN1C(=O)N(c2ccc(-c3cn[nH]c3)cc2)CC12CCN(CCO)CC2 [Example 143, 3-(4-(1H-pyrazol-4-yl)phenyl)-1-(3-fluoro-2-methylbenzyl)-8-(2-hydroxyethyl)-1,3,8-triazaspiro[4.5]decan-2-one], which IC50 is on record?
Answer: < 3 nM

Question: How did the IC50 turn out when COc1cc(F)cc(CN2C(=O)N(c3ccc(-c4cn[nH]c4)cc3)CC23CCN(CCO)CC3)c1 [Example 144, 3-(4-(1H-pyrazol-4-yl)phenyl)-1-(3-fluoro-5-methoxybenzyl)-8-(2-hydroxyethyl)-1,3,8-triazaspiro[4.5]decan-2-one] was run?
Answer: < 3 nM

Question: Which IC50 does the source give for COc1cccc(CN2C(=O)N(c3ccc(-c4cn[nH]c4)cc3)CC23CC[N+]([O-])(CCO)CC3)c1 (centres unmarked) [Example 145, 3-(4-(1H-pyrazol-4-yl)phenyl)-8-(2-hydroxyethyl)-1-(3-methoxybenzyl)-2-oxo-1,3,8-triazaspiro[4.5]decane 8-oxide] here?
Answer: < 3 nM

Question: For COc1cccc(CN2C(=O)N(c3ccc(-c4cn[nH]c4)c(OC)n3)CC23CCN(CCO)CC3)c1 [Example 146, 8-(2-hydroxyethyl)-3-(6-methoxy-5-(1H-pyrazol-4-yl)pyridin-2-yl)-1-(3-methoxybenzyl)-1,3,8-triazaspiro[4.5]decan-2-one], which IC50 is on record?
Answer: < 3 nM

Question: Which IC50 does the source give for COc1cccc(CN2C(=O)N(c3ccc(-c4cn[nH]c4)c(OC)n3)CC23CCN(CC(C)O)CC3)c1 (centres unmarked) [Example 147, 8-(2-hydroxypropyl)-3-(6-methoxy-5-(1H-pyrazol-4-yl)pyridin-2-yl)-1-(3-methoxybenzyl)-1,3,8-triazaspiro[4.5]decan-2-one] here?
Answer: < 3 nM

Question: With COc1cccc(CN2C(=O)N(c3ccc(-c4cn[nH]c4)c(OC)n3)CC23CCN(CC(C)(C)O)CC3)c1 [Example 148, 8-(2-hydroxy-2-methylpropyl)-3-(6-methoxy-5-(1H-pyrazol-4-yl)pyridin-2-yl)-1-(3-methoxybenzyl)-1,3,8-triazaspiro[4.5]decan-2-one] as the compound, how does the IC50 read?
Answer: < 3 nM

Question: How did the IC50 turn out when CCc1nc(N2CC3(CCN(CCO)CC3)N(Cc3cccc(F)c3C)C2=O)ccc1-c1cn[nH]c1 [Example 149, 3-(6-ethyl-5-(1H-pyrazol-4-yl)pyridin-2-yl)-1-(3-fluoro-2-methylbenzyl)-8-(2-hydroxyethyl)-1,3,8-triazaspiro[4.5]decan-2-one] was run?
Answer: < 3 nM

Question: With CCc1nc(N2CC3(CCN(CCO)CC3)N(Cc3cccc(OC)c3)C2=O)ccc1-c1cn[nH]c1 [Example 150, 3-(6-ethyl-5-(1H-pyrazol-4-yl)pyridin-2-yl)-8-(2-hydroxyethyl)-1-(3-methoxybenzyl)-1,3,8-triazaspiro[4.5]decan-2-one] as the compound, how does the IC50 read?
Answer: < 3 nM

Question: How did the IC50 turn out when CCc1nc(N2CC3(CCN(CC(C)O)CC3)N(Cc3cccc(OC)c3)C2=O)ccc1-c1cn[nH]c1 (centres unmarked) [Example 151, 3-(6-ethyl-5-(1H-pyrazol-4-yl)pyridin-2-yl)-8-(2-hydroxypropyl)-1-(3-methoxybenzyl)-1,3,8-triazaspiro[4.5]decan-2-one] was run?
Answer: < 3 nM
